Assay results taken from patent US9617258B2, “Pyrrolo[2,3-d]pyrimidinyl, pyrrolo[2,3-b]pyrazinyl and pyrrolo[2,3-d]pyridinyl acrylamides” (Pfizer Inc., priority 2013, dated 2017).

assay: Stability of JAK3 covalent inhibitors in human whole blood; assay type: in vitro ADME; conditions: both sexes, whole blood, 37° C., read-out: Human blood stability t1/2;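 note: parent compound remaining over incubation time quantified by LC-MS/MS as peak area ratio against an internal standard, using pooled K2-EDTA blood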
Description: Stability of JAK3 Covalent Inhibitors in Rat and Human Whole Blood
Rat blood was collected from 3 male Sprague-Dawley rats (200-250 g, Charles River Laboratories) and pooled for each study. Human blood was collected from one male and one female healthy subjects at the Occupational Health & Wellness Center at Pfizer, Groton, CT and pooled for each study. Both rat and human blood was collected freshly into K2-EDTA tubes and kept on ice. An aliquot of the blood was transferred to microtubes and pre-warmed for 10 min at 37° C. using a heat block. […] An aliquot of the incubation mixture was removed at designated time points during the course of the incubation, mixed with an aliquot of acetonitrile containing an internal standard, vortexed and centrifuged. The resulting supernatants were removed and subjected to LC-MS/MS analyses to determine parent compound concentrations. Peak area ratios of the parent compound vs the internal standard were used to determine the % of parent compound remaining vs incubation time.

| half-life at 1 μM | SMILES |
| --- | --- |
| 4.57 h | C=CC(=O)N1CCC[C@@H](Nc2ncnc3[nH]cc(C)c23)C1 [Example 43, 1-{(3R)-3-[(5-methyl-7H-pyrrolo[2,3-d]pyrimidin-4-yl)amino]piperidin-1-yl}prop-2-en-1-one] |
| 2.77 h | C=CC(=O)N1CCC[C@@H](Nc2ncnc3[nH]cc(CC)c23)C1 [Example 44, 1-{(3R)-3-[(5-ethyl-7H-pyrrolo[2,3-d]pyrimidin-4-yl)amino]piperidin-1-yl}prop-2-en-1-one] |
| > 6 h | C=CC(=O)N1CCC[C@@H](Nc2ncnc3[nH]cc(C#N)c23)C1 [Example 45, 4-{[(3R)-1-acryloylpiperidin-3-yl]amino}-7H-pyrrolo[2,3-d]pyrimidine-5-carbonitrile] |
| > 5.74 h | C=CC(=O)N1CCC[C@@H](Nc2ncnc3[nH]cc(CCOC)c23)C1 [Example 46, 1-[(3R)-3-{[5-(2-methoxyethyl)-7H-pyrrolo[2,3-d]pyrimidin-4-yl]amino}piperidin-1-yl]prop-2-en-1-one] |
| 5.26 h | C=CC(=O)N1CCC[C@@H](Nc2ccnc3[nH]cc(C)c23)C1 [Example 47, 1-{(3R)-3-[(3-methyl-1H-pyrrolo[2,3-b]pyridin-4-yl)amino]piperidin-1-yl}prop-2-en-1-one] |
| 2.5 h | C#Cc1c[nH]c2ncnc(N3CC[C@H]4CCN(C(=O)C=C)C[C@H]43)c12 [Example 48, 1-[(3aS,7aS)-1-(5-ethynyl-7H-pyrrolo[2,3-d]pyrimidin-4-yl)octahydro-6H-pyrrolo[2,3-c]pyridin-6-yl]prop-2-en-1-one] |
| > 5.97 h | C=CC(=O)N1CC(Nc2ncnc3[nH]ccc23)CCC1CO (centres unmarked) [Example 52, 1-[2-(Hydroxymethyl)-5-(7H-pyrrolo[2,3-d]pyrimidin-4-ylamino)piperidin-1-yl]prop-2-en-1-one] |
| 3.5 h | C=CC(=O)N1CC[C@@H](F)[C@@H](Nc2ncnc3[nH]ccc23)C1 [Example 54, 1-((3S,4R)-3-((7H-pyrrolo[2,3-d]pyrimidin-4-yl)amino)-4-fluoropiperidin-1-yl)prop-2-en-1-one] |
| 1.35 h | C=CC(=O)N1C[C@H](Nc2ncnc3[nH]ccc23)C[C@H](N(C)C)C1 [Example 57, 1-((3R,5S)-3-((7H-Pyrrolo[2,3-d]pyrimidin-4-yl)amino)-5-(dimethylamino)piperidin-1-yl)prop-2-en-1-one] |
| 0.583 h | C=CC(=O)N1C[C@@H](C#N)C[C@@H](Nc2ncnc3[nH]ccc23)C1 [Example 58, (3S,5R)-5-((7H-pyrrolo[2,3-d]pyrimidin-4-yl)amino)-1-acryloylpiperidine-3-carbonitrile] |
| 3.07 h | C=CC(=O)N1CC[C@]2(C)CCN(c3ncnc4[nH]ccc34)[C@@H]2C1 [Example 59, 1-((3aS,7aS)-3a-Methyl-1-(7H-pyrrolo[2,3-d]pyrimidin-4-yl)hexahydro-1H-pyrrolo[2,3-c]pyridin-6(2H)-yl)prop-2-en-1-one] |
| > 6 h | C=CC(=O)N1C[C@H](O)C[C@@H](Nc2ncnc3[nH]ccc23)C1 [Example 60, 1-((3R,5R)-3-((7H-Pyrrolo[2,3-d]pyrimidin-4-yl)amino)-5-hydroxypiperidin-1-yl)prop-2-en-1-one] |
| > 6 h | C=CC(=O)N1CCC[C@@H](Nc2nc(Nc3cccnc3)nc3[nH]ccc23)C1 [Example 63, 1-[(3R)-3-{[2-(Pyridin-3-ylamino)-7H-pyrrolo[2,3-d]pyrimidin-4-yl]amino}piperidin-1-yl]prop-2-en-1-one] |
| > 6 h | C=CC(=O)N1CCC[C@@H](Nc2ncnc3[nH]cc(-c4ccc(C)nc4)c23)C1 [Example 66, (R)-1-(3-((5-(6-methylpyridin-3-yl)-7H-pyrrolo[2,3-d]pyrimidin-4-yl)amino)piperidin-1-yl)prop-2-en-1-one] |
| > 6 h | C=CC(=O)N1CC(Nc2ncnc3[nH]ccc23)CCC1(C)C (centres unmarked) [Example 67, 1-(5-((7H-Pyrrolo[2,3-d]pyrimidin-4-yl)amino)-2,2-dimethylpiperidin-1-yl)prop-2-en-1-one] |
| 5.72 h | C=CC(=O)N1CCC[C@](C)(Nc2ncnc3[nH]ccc23)C1 [Example 70, (S)-1-(3-((7H-Pyrrolo[2,3-d]pyrimidin-4-yl)amino)-3-methylpiperidin-1-yl)prop-2-en-1-one] |
| 3.82 h | C=CC(=O)N1CCCC(C)(Nc2ncnc3[nH]ccc23)C1 (centres unmarked) [Example 71, 1-(3-((7H-Pyrrolo[2,3-d]pyrimidin-4-yl)amino)-3-methylpiperidin-1-yl)prop-2-en-1-one] |
| 3.25 h | C=CC(=O)N1CC[C@@H]2CCN(c3nc(N)nc4[nH]ccc34)[C@@H]2C1 [Example 73, 1-[(3aS,7aS)-1-(2-Amino-7H-pyrrolo[2,3-d]pyrimidin-4-yl)octahydro-6H-pyrrolo[2,3-c]pyridin-6-yl]prop-2-en-1-one] |
| 1.72 h | C=CC(=O)N1C[C@H](C)C[C@@H](Nc2ncnc3[nH]ccc23)C1 [Example 74, 1-[(3R,5R)-3-Methyl-5-(7H-pyrrolo[2,3-d]pyrimidin-4-ylamino)piperidin-1-yl]prop-2-en-1-one] |

| half-life at 1 μM | SMILES |
| --- | --- |
| > 6 h | C=CC(=O)N1C[C@@H](C)C[C@H](Nc2ncnc3[nH]ccc23)C1 [Example 75, 1-((3S,5S)-3-((7H-Pyrrolo[2,3-d]pyrimidin-4-yl)amino)-5-methylpiperidin-1-yl)prop-2-en-1-one] |
| 4.2 h | C=CC(=O)N1C[C@H](Nc2ncnc3[nH]ccc23)C[C@@H](OC)C1 [Example 77, 1-[(3R,5R)-3-Methoxy-5-(7H-pyrrolo[2,3-d]pyrimidin-4-ylamino)piperidin-1-yl]prop-2-en-1-one] |
| 0.282 h | O=C(/C=C/C(F)(F)F)N1CC[C@@H]2CCN(c3ncnc4[nH]ccc34)[C@@H]2C1 [Example 81, (2E)-4,4,4-trifluoro-1-[(3aS,7aS)-1-(7H-pyrrolo[2,3-d]pyrimidin-4-yl)octahydro-6H-pyrrolo[2,3-c]pyridin-6-yl]but-2-en-1-one] |
| > 6 h | CN(C)C/C=C/C(=O)N1CC[C@@H]2CCN(c3ncnc4[nH]ccc34)[C@@H]2C1 [Example 82, (2E)-4-(dimethylamino)-1-[(3aS,7aS)-1-(7H-pyrrolo[2,3-d]pyrimidin-4-yl)octahydro-6H-pyrrolo[2,3-c]pyridin-6-yl]but-2-en-1-one] |
| > 6 h | C=C(C)C(=O)N1CC[C@@H]2CCN(c3ncnc4[nH]ccc34)[C@@H]2C1 [Example 85, 2-methyl-1-[(3aS,7aS)-1-(7H-pyrrolo[2,3-d]pyrimidin-4-yl)octahydro-6H-pyrrolo[2,3-c]pyridin-6-yl]prop-2-en-1-one] |
| 1.23 h | C=CC(=O)N1C[C@H](Nc2ncnc3[nH]ccc23)C[C@@H](N(C)C)C1 [Example 88, 1-[(3R,5R)-3-(Dimethylamino)-5-(7H-pyrrolo[2,3-d]pyrimidin-4-ylamino)piperidin-1-yl]prop-2-en-1-one] |
| 2.8 h | C=CC(=O)N1CC[C@@H]2OCCN(c3ncnc4[nH]ccc34)[C@@H]2C1 [Example 90, 1-[(4aR,8aS)-4-(7H-Pyrrolo[2,3-d]pyrimidin-4-yl)hexahydro-2H-pyrido[4,3-b][1,4]oxazin-6(5H)-yl]prop-2-en-1-one] |
| > 6 h | C/C=C/C(=O)N1CCC[C@@H](Nc2ncnc3[nH]ccc23)C1 [Example 95, (2E)-1-[(3R)-3-(7H-pyrrolo[2,3-d]pyrimidin-4-ylamino)piperidin-1-yl]but-2-en-1-one] |
| > 6 h | COCCc1c[nH]c2ncnc(N[C@@H]3CCCN(C(=O)/C=C/CN(C)C)C3)c12 [Example 108, (2E)-4-(dimethylamino)-1-[(3R)-3-{[5-(2-methoxyethyl)-7H-pyrrolo[2,3-d]pyrimidin-4-yl]amino}pipendin-1-yl]but-2-en-1-one] |
| 2.37 h | C=CC(=O)N1CC[C@@H](C)[C@H](Nc2ncnc3[nH]ccc23)C1 [Example 112, 1-[(3S,4R)-4-Methyl-3-(7H-pyrrolo[2,3-d]pyrimidin-4-ylamino)piperidin-1-yl]prop-2-en-1-one] |
| > 6 h | C=CC(=O)N1C[C@@H](Nc2ncnc3[nH]ccc23)CC[C@H]1CO [Example 117, 1-[(2S,5S)-2-(Hydroxymethyl)-5-(7H-pyrrolo[2,3-d]pyrimidin-4-ylamino)piperidin-1-yl]prop-2-en-1-one] |
| 5.07 h | C=CC(=O)N1C[C@H](C)C[C@H](Nc2ncnc3[nH]ccc23)C1 [Example 128, 1-[(3R,5S)-3-Methyl-5-(7H-pyrrolo[2,3-d]pyrimidin-4-ylamino)piperidin-1-yl]prop-2-en-1-one] |
| > 6 h | C=CC(=O)N1C[C@@H](O)C[C@@H](Nc2ncnc3[nH]cc(Cl)c23)C1 [Example 162, 1-{(3R,5S)-3-[(5-Chloro-7H-pyrrolo[2,3-d]pyrimidin-4-yl)amino]-5-hydroxypiperidin-1-yl}prop-2-en-1-one] |
| 4.83 h | C=CC(=O)N1C[C@H](Nc2ncnc3[nH]cc(C#N)c23)CC[C@@H]1C [Example 163, 4-{[(3R,6S)-1-Acryloyl-6-methylpiperidin-3-yl]amino}-7H-pyrrolo[2,3-d]pyrimidine-5-carbonitrile] |
| > 5.82 h | C=CC(=O)N1C[C@H](Nc2ccnc3[nH]cc(C#N)c23)CC[C@@H]1C [Example 165, 4-{[(3R,6S)-1-Acryloyl-6-methylpiperidin-3-yl]amino}-1H-pyrrolo[2,3-b]pyridine-3-carbonitrile] |
| > 5.83 h | C=CC(=O)N1CCC(Nc2cnc3[nH]cc(C(=O)NC(C)C)c3n2)CC1 [Example 168, 2-[(1-acryloylpiperidin-4-yl)amino]-N-(propan-2-yl)-5H-pyrrolo[2,3-b]pyrazine-7-carboxamide] |
| > 6 h | C=CC(=O)N1CC[C@H](Nc2cnc3[nH]cc(C(=O)NC(C)C)c3n2)C1 [Example 171, 2-{[(3S)-1-acryloylpyrrolidin-3-yl]amino}-N-(propan-2-yl)-5H -pyrrolo[2,3-b]pyrazine-7-carboxamide] |
| 4.16 h | C=CC(=O)N1CCN(c2cnc3[nH]cc(C(=O)NC(C)C)c3n2)CC1 [Example 174, 2-(4-acryloylpiperazin-1-yl)-N-(propan-2-yl)-5H-pyrrolo[2,3-b]pyrazine-7-carboxamide] |
| > 6 h | C=CC(=O)N1CCC(Nc2cnc3[nH]ccc3n2)CC1 [Example 176, 1-[4-(5H-pyrrolo[2,3-b]pyrazin-2-ylamino)piperidin-1-yl]prop-2-en-1-one] |
